In one assay the test system is MV4-11. Briefly: Induction of apoptosis in human MV4-11 cells assessed as necrotic cells at 1 nM incubated for 48 hrs by Annexin V-FITC/PI staining based flow cytometric analysis (reference value: 0.07 %). Format: functional.
For assay [1], the target named is Protein cereblon/Bromodomain-containing protein 9 (Homo sapiens, UniProt Q9H8M2+Q96SW2). The assay is described as follows: PROTAC activity at CRBN/BRD9 in human MV4-11 cells assessed as induction of BRD9 degradation at 0.33 nM in presence of N-(1,1-dioxidotetrahydro-2H-thiopyran-4-yl)-5-ethyl-4-oxo-7-(3-(trifluoromethyl)phenyl)-4,5-dihydrothieno[3,2-c]pyridine-2-carboximidamide by Western blot analysis. Format: cell-based. A general note: In western blotting, separated proteins are transferred to a membrane and probed.
Chain of Protein cereblon/Bromodomain-containing protein 9 (Q96SW2 whole entry, looked up): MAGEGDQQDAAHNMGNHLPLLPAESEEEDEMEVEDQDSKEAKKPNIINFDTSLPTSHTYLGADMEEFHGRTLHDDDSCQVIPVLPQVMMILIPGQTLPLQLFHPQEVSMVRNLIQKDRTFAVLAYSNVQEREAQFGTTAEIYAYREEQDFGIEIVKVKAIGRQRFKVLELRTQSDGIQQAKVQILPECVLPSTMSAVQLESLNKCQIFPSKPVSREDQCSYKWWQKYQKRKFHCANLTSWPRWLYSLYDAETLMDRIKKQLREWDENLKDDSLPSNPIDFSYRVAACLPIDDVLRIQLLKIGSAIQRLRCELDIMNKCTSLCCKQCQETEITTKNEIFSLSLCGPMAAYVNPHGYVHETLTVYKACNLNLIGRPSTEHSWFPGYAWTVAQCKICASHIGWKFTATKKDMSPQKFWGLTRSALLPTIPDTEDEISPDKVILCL
Chain of Protein cereblon/Bromodomain-containing protein 9 (Q9H8M2 whole entry, looked up): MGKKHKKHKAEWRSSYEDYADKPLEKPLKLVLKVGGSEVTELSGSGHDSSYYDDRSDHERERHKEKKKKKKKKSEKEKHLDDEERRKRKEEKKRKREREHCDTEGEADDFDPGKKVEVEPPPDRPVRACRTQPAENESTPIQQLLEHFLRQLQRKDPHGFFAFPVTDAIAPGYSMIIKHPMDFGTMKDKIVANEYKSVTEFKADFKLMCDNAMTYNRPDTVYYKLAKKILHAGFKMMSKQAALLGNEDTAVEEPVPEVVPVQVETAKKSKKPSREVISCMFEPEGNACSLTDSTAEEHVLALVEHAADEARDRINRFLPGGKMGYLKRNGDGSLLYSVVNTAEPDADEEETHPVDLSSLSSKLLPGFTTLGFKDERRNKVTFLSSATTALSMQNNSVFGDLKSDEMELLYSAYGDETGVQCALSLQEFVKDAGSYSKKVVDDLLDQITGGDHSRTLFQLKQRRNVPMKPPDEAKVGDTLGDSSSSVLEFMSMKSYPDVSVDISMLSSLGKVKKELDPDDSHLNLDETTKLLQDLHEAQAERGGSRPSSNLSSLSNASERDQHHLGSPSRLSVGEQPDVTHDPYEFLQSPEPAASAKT

Active and inactive are the calls of the source. No cut-off for these calls is given here.

Regarding `COc1cc(-c2cn(C)c(=O)c3ccccc23)cc(OC)c1CN1CCC(CN2CCC(c3ccc4c5c(cccc35)C(=O)N4C3CCC(=O)NC3=O)CC2)CC1` (configuration not stated), in the assay on MV4-11, the Activity is on record as 0.06%. Also, the outcome in assay [1] was inactive.
